Tested on: katGFSAA6 Mtb (INH-resistant, frameshift at amino acid 6 in katG)
Type: cell-based, Mycobacterium tuberculosis

Row | SMILES | doubling time
1 | O=C(O)[C@@H]1CSc2c(C3CC3)c(Cc3cccc4ccccc34)cc(=O)n21 [Example 1, (3R)-7-Cyclopropyl-6-[(1-naphthyl)methyl]-4-oxo-1-thia-3a-aza-3-indancarboxylic acid] | 48 h
2 | NNC(=O)c1ccncc1 [INH, isonicotinylhydrazide, reference compound] | 55 h

— patent publication US20230115208A1, “RING-FUSED THIAZOLINO 2-PYRIDONES, METHODS FOR PREPARATION THEREOF AND THEIR USE IN THE TREATMENT AND/OR PREVENTION OF TUBERCULOSIS” (QURETECH BIO AB, priority 2016, published 2023)
